Test results: patent US20080096903A1, “SULFAMOYL-CONTAINING DERIVATIVES AND USES THEREOF” (Wyeth, priority 2006, published 2008)
Like-named read-outs stand apart in the source and are kept apart here.

Assays:
Hsp90α Protein = Hsp90α Protein (Homo sapiens, UniProt P07900); assay: Hsp90 CE Competitive Binding Assay (displacement of fluorescein-labelled geldanamycin)
Protocol: Hsp90 CE Competitive Binding Assay: […]
b) “Competitor”, fluorescein-labelled geldanamycin • The competitor was synthesized as described by Llauger-Bufi et al, Bioorg.
The electrophoresis running buffer (RB) is comprised of 200 mM CAPSO, pH 9.2 (pH-adjusted with Trizma base). The sample buffer (SB) is comprised of 10 mM Trizma base, pH 8.0 (pH-adjusted with glacial acetic acid), 5 mM MgCl2, 5 mM DTT, and BSA and Triton as noted.
Capillary electrophoresis was performed on Cetek Gemini Systems™ using laser-induced fluorescence detection. Fused-silica capillaries (50 μm I.D.×30 cm, approximately 10 cm length from end to detection window) were internally coated using Cetek's proprietary methods.
Each sample (i.e., fermentation extract, partially-purified fraction, or compound mixture, or pure compound) to be assayed is prediluted 1:20 or 1:40 in SB containing 0.02% Triton. 1 μl of each prediluted sample is then deposited into a 96-well microtiter plate and mixed with 8 μl of Target Cocktail. These samples can be stored at 4° C. until ready for assay.
When ready for analysis, the plates are transferred to the deck of a Gemini System. To each mixture of sample and target, 1 μl of Competitor Cocktail is added and mixed thoroughly. This reaction mixture is allowed to incubate for 8 minutes on the refrigerated deck of the Gemini System (temperature 8° C.). During incubation, the CE capillary is rinsed for 30 seconds with RB containing 2 mg/ml BSA, and then 60 seconds with RB. At the end of incubation, a small plug of the reaction mixture is then injected into the capillary at low pressure (0.5 psi) for 7 seconds. The loaded capillary is then dipped into reservoirs containing RB and the sample is electrophoresed at 10 kV for 6 minutes at a temperature of 8° C.
The electrophoretic separation produces a graphical profile known as an “electropherogram,” which contains a peak representing the intact complex between Hsp90 and competitor, and a smaller series (typically, a triplet) of peaks representing unbound competitor. […] Dose-response experiments, which evaluate the degree of competitor displacement as a function of sample concentration, are subsequently run in triplicate to validate hits and to quantitate their potencies, which are expressed as IC50 values.
Negative controls are comprised of 0.5% DMSO, and positive controls are comprised of 0.1 μg/ml 17-AAG.

[1] = tested on: Hsp90 (luciferase refolding, cancer cell lysate); assay: Luciferase Refolding Assay; assay type: biochemical; conditions: inhibition of luciferase refolding by Hsp90
Protocol: Luciferase Refolding Assay
• A. Cancer cells are cultured according to ATCC guidelines. Cell lysates are prepared as follows to be used as source of heat shock proteins: Resuspend the washed cell pellet in 3˜10 packed cell volumes of Buffer A (10 mM HEPES pH 7.9, 1.5 mM MgCl2, 10 mM KCl, 0.5 mM DTT, and 0.2 mM PMSF). Spin at 2000 rpm for 5 minutes in GS-6R (Beckman) centrifuge, 4° C. and resuspend cells in Buffer A up to a final of 3 packed cell volumes (i.e., add ˜2 volumes). Incubate on ice for 10 minutes. Transfer the cells to a Wheaton A Dounce homogenizer and lyse with 10-25 strokes. Stain an aliquot with Trypan Blue and check for >90% lysis under microscope. Spin the homogenized mixture at 3000 rpm for 20 minutes in GS-6R (Beckman) centrifuge, 4° C., to pellet nuclei. To the cytoplasmic fraction (cell lysate), add 1 mM ATP, 14.3 mM creatine phosphate, 71 μg/ml phosphokinase, 3 mM DTT, 113 mM KAc, and 0.7 mM MgAc2. Aliquot into eppendorf tubes and freeze at −80° C. • B. Luciferase Stability Buffer (SB): 25 mM Tris-HCl, pH 7.8; 8 mM MgSO4; 0.1 mM EDTA; 10 mg/ml BSA; 10% Glycerol; 0.25% Triton X-100. Make 2×SB and store at −20° C. • C. Cell Lysate (CL) Buffer: Buffer A containing 1 mM ATP; 14.3 mM creatine phosphate; 71 ug/ml phosphokinase; 3 mM DTT; 113 mM KAc; and 0.7 mM MgAc2. • D. Luciferase: Promega E1701, 14.9 mg/ml=244 μM. Dilute 1:60 in 30 mM Tris-HCl, pH 7.4, 2 mM DTT, and 20% glycerol, resulting in a stock luciferase solution with concentration of 4 μM (250 ng/μl). • E. Luciferase substrate: Promega E1500. Procedure: • 1) Mix luciferase solution 1:1 with 2× SB buffer. Incubate at 42° C. for 8 min to denature. […] Data analysis: Luciferase refolding activity of a cell lysate sample with or without HSP90 inhibitor is represented as the net of luminescence reading from a cell lysate sample subtracting results from negative control (no cell lysate or heat shock proteins). Inhibition effect of a compound is calculated as the percentage of refolding activity relative to samples without any inhibitors in the cell lysate.
The ability of selected compounds of the invention to inhibit luciferase refolding by Hsp90 based on this assay is summarized in Table 14.

[2] = tested on: HER2/Neu protein in SK-OV-3 cells; assay: Hsp90 Client Protein Degradation Assay; assay type: cell-based; conditions: for IC50: Homo sapiens, 50% degradation of HER2/Neu protein, SK-OV-3 cells, overnight
Protocol: Hsp90 Client Protein Degradation Assay
SK-OV-3 cells were obtained from ATCC (Rockville, Md.) and maintained in McCoy's 5A Media with 10% Fetal Bovine Serum (ATCC) at 37° C. with 5% CO2 in humidified incubators. Cells were plated at 2 ml per well at 100,000 cells/ml in six well dishes. Cells were incubated overnight at 37° C. and given test agent compound the following day in a titrated series. Cell incubation in the presence of compound proceeded overnight at 37° with 5% CO2 in media in the presence of serum. The following day media was aspirated and cells washed on plate with 2 mls of cold D-PBS. 100 ul of 1× Laemli's buffer was added to each well and total protein obtained by scraping the cell pellet and removing to 1.5 ml Eppendorf tube on ice. Cells were further lysed and DNA was fragmented by sonication and cells debris pelleted at 14 K for 3 min at 4° C. 20 ul was loaded per well and fractionated on PAGE gels. Western analyses were performed using abs specifically for the Hsp90 client proteins HER-2 (Santa Cruz Biotech, Santa Cruz, Calif.) and c-raf-1 (Cell Signaling Technology, Danvers, Mass.). Loading per well was controlled by testing for g-actin on Western Blots (Cell Signaling Technology) simultaneous to testing for HER-2 or c-raf-1. Detection was via a secondary antibody conjugated to Horse radish peroxidase (HRP) and enhanced chemiluminescent detection from Supersignal West Pico Detection Kits from Pierce (Rockford, Ill.). Autoradiography was via Kodak X-OMAT film and developing via a Kodak M35 film processor.

Human cancer cell lines = assay: Cancer-Derived Cell Line Growth Inhibition Assays; assay type: cell-based; conditions: 72 h, 3 days, Cell Titer Blue
Protocol: Cancer-Derived Cell Line Growth Inhibition Assays
Human cancer cell lines were obtained from ATCC (Rockville, Md.) and maintained according to their media specifications at 37° C. in humidified incubators with or without 5% CO2. Cells were plated at 0.1 ml/well of 50,000 cells per ml in 96 well plates. Monolayer grown cells were incubated overnight prior to the addition of compound while cells grown in suspension are given compound on the same day as plating. The test agent is titrated in duplicate for each compound and concentration tested. Cells are incubated in the presence of compound at 37° C. in humidified incubators for 3 days prior to addition of 20 ul of Cell Titer Blue (Promega, Madison, Wis.) which quantifies total cellular metabolic activity by conversion of resazurin to resorufin. Cell titer blue measures metabolic activity by quantifying the amount of biological activity present in a well using reduction of the dye resazurin as an end-point metric. Cells then are allowed to incubate at 37° C. for 2 hours and then analyzed using a Bio-TEK (Winooski, Vt.) Synergy HT 96/384 well plate reader set for 530 nm/590 nm, Ex/Em. Data analysis and depiction is conducted using EXCEL.

[3] = initial structure activity relationship table, read-out: HSP90 CE IC50
[4] = Table 14, inhibition of binding of labeled geldanamycin to Hsp90, read-out: CE IC50
[5] = versus corresponding alcohol (R═H)

IC50 (Hsp90α Protein; [3]) [µM]	IC50 [1] [µM]	IC50 [2] [µM]	IC50 (Human cancer cell lines) [µM]	IC50 (Hsp90α Protein; [4]) [µM]	more activity than the corresponding alcohol (R═H), CE Hsp90 assay (Hsp90α Protein; [5]) [fold]	SMILES	more activity than the corresponding alcohol (R═H), client protein assay [2, 5] [fold]	IC50 (Hsp90α Protein) [µM]
> 144						Nc1ncnc2c1ncn2C1OC(COP(=O)(O)O)C(O)C1O (centres unmarked) [AMP, reference compound]		
	< 1	< 3	< 5	< 0.04		Nc1nc(F)nc2c1nc(Cc1cc3c(cc1I)OCO3)n2CCOS(N)(=O)=O [Example 1, Sulfamic Acid 2-[6-amino-2-fluoro-8-(6-iodo-benzo[1,3]dioxol-5-ylmethyl)-purin-9-yl]-ethyl ester]		
	< 1	< 3	< 5	< 0.04		Nc1nc(F)nc2c1nc(Cc1cc3c(cc1I)OCO3)n2CCCOS(N)(=O)=O [Example 2, Sulfamic Acid 3-[6-Amino-2-fluoro-8-(6-iodo-benzo[1,3]dioxol-5-ylmethyl)-purin-9-yl]-propyl ester]		
	< 1	< 3	< 5	< 0.04		Nc1nc(F)nc2c1nc(Cc1cc3c(cc1I)OCO3)n2CCCCCOS(N)(=O)=O [Example 4, Sulfamic Acid 5-[6-amino-2-fluoro-8-(6-iodo-benzo[1,3]dioxol-5-ylmethyl)-purin-9-yl]-pentyl ester]		
	< 1	< 3	< 5	< 0.04	35	Nc1nc(F)nc2c1nc(Cc1cc3c(cc1I)OCO3)n2CCCCCCOS(N)(=O)=O [Example 5, Sulfamic Acid 6-[6-amino-2-fluoro-8-(6-iodo-benzo[1,3]dioxol-5-ylmethyl)-purin-9-yl]-hexyl ester]	16	
	< 1	< 3	< 5	< 0.04		Nc1nc(F)nc2c1nc(Cc1cc3c(cc1I)OCO3)n2CCCCCCCOS(N)(=O)=O [Example 6, Sulfamic Acid 7-[6-amino-2-fluoro-8-(6-iodo-benzo[1,3]dioxol-5-ylmethyl)-purin-9-yl]-heptyl ester]		
		< 50	< 100	< 2		Nc1nc(F)nc2c1nc(Cc1cc3c(cc1I)OCO3)n2CCCCCCCCOS(N)(=O)=O [Example 7, Sulfamic Acid 8-[6-amino-2-fluoro-8-(6-iodo-benzo[1,3]dioxol-5-ylmethyl)-purin-9-yl]-octyl ester]		
	< 1	< 3	< 5	< 0.04		Nc1nc(F)nc2c1nc(Cc1cc3c(cc1I)OCO3)n2CCOCCOS(N)(=O)=O [Example 8, Sulfamic Acid 2-{2-[6-amino-2-fluoro-8-(6-iodo-benzo[1,3]dioxol-5-ylmethyl)-purin-9-yl]-ethoxy}-ethyl ester]		
	< 1	< 3	< 5	< 0.04		Nc1nc(F)nc2c1nc(Cc1cc3c(cc1I)OCO3)n2CCOCCCOS(N)(=O)=O [Example 9, Sulfamic Acid 3-{2-[6-amino-2-fluoro-8-(6-iodo-benzo[1,3]dioxol-5-ylmethyl)-purin-9-yl]-ethoxy}-propyl ester]		
	< 1	< 3	< 5	< 0.04		Nc1nc(F)nc2c1nc(Cc1cc3c(cc1I)OCO3)n2CCOCCCCOS(N)(=O)=O [Example 10, Sulfamic Acid 4-{2-[6-amino-2-fluoro-8-(6-iodo-benzo[1,3]dioxol-5-ylmethyl)-purin-9-yl]-ethoxy}-butyl ester]		
0.7						Nc1nc(F)nc2c1ncn2C1OC(COS(N)(=O)=O)C(O)C1O (centres unmarked) [FSA, reference compound]		
						Nc1nc(F)nc2c1ncn2C1OC(CO)C(O)C1O (centres unmarked) [Fluoroadenosine (FA), Fluoroadenosine, reference compound]		22
	< 5	< 50	< 100	< 2		Nc1nc(F)nc2[nH]c(Cc3cc4c(cc3I)OCO4)nc12 [Intermediate 5, 2-Fluoro-8-(6-iodo-benzo[1,3]dioxol-5-ylmethyl)-9H-purin-6-ylamine]		
